According to PMC4729137, “Functional analysis of androgen receptor mutations that confer anti-androgen resistance identified in circulating cell-free DNA from prostate cancer patients” (Genome Biology, 2016):
Where a chain is given by its changes, count along the chain named.

How the values were obtained:
Experiment in all cases: cell-based
H875Q-AR = target: T1, H875Q-AR (Homo sapiens, UniProt P10275, H875Q)
T1 sequence (P10275 1-920 H875Q): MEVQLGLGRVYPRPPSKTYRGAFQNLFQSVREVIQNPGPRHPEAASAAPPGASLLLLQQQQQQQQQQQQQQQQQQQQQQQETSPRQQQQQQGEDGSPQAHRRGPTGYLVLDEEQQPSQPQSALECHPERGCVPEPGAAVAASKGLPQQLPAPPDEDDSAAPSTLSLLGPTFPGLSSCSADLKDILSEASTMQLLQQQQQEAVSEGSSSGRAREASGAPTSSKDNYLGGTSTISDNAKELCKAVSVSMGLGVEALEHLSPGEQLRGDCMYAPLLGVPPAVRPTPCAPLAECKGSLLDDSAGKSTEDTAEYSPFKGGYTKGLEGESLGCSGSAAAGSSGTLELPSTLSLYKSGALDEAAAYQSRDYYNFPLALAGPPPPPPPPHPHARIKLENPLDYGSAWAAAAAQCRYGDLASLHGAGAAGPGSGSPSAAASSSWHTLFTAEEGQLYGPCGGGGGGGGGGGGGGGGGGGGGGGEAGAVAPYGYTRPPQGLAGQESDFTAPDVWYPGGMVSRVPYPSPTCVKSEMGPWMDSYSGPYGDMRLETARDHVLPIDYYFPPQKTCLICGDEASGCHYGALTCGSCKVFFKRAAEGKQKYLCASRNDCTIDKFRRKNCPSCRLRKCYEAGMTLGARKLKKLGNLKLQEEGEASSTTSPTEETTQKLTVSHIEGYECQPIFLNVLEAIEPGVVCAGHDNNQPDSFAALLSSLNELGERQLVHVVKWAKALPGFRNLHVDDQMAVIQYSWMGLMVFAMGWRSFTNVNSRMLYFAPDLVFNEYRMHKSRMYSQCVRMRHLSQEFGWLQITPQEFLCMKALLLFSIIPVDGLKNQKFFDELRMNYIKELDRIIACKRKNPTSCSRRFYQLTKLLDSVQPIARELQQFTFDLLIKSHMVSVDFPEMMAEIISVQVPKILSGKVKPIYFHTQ

D880E-AR = target: T2, D880E-AR (Homo sapiens, UniProt P10275, D880E)
T2 sequence (P10275 1-920 D880E): T1 sequence (P10275 1-920 H875Q) with Q875H, D880E

L882I-AR = target: T3, L882I-AR (Homo sapiens, UniProt P10275, L882I)
T3 sequence (P10275 1-920 L882I): T1 sequence (P10275 1-920 H875Q) with Q875H, L882I

Measured: EC50

C[C@]12CCC(=O)C=C1CC[C@@H]1[C@@H]2[C@@H](O)C[C@@]2(C)[C@H]1CC[C@]2(O)C(=O)CO [hydrocortisone]
> 0.5 µM: H875Q-AR | D880E-AR | L882I-AR
